Read-outs that look alike come from different tables or passages of the source. No end group written: not given here.
Assays:
PAC1R = target: T1, PAC1R (Homo sapiens, UniProt P41586); experiment: cAMP accumulation, chimeric peptides (Fig. 5b); format: cell-based; settings: COS-7, three-parameter logistic, read-out: pEC50, PAC1R cAMP (converted)
T1 construct: An HA signal peptide was inserted in place of the native signal peptide of the receptors; HA signal peptide (replaces the native signal peptide) (N); 3C protease cleavage sites (between FLAG and receptor, and between receptor and His) (internal); expressed in transfected cells; host or cells: COS-7 (transient, PEI)
T1 sequence (P41586 21-468): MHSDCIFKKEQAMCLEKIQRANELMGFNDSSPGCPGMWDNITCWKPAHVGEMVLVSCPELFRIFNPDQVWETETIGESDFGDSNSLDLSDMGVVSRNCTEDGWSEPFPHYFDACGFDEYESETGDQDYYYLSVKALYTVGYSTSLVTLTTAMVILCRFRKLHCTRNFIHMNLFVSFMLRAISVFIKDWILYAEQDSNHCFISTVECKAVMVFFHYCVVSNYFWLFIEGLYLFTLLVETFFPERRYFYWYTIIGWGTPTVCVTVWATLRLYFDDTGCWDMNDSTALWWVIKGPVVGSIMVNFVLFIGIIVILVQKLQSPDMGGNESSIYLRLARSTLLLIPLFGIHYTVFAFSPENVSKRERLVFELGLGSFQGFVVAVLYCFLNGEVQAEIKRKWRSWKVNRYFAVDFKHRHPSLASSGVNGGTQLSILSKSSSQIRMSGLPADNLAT
Excerpt: (§1) An HA signal peptide was inserted in place of the native signal peptide of the receptors and a FLAG epitope was incorporated into the receptor N-terminus immediately after the signal peptide. A His tag was fused to C-terminus of the receptor. 3C protease cleavage sites were inserted between both the FLAG and His tags and the receptor. […] The following PAC1R and VPAC1R mutants were also generated using Quikchange mutagenesis: PAC1R C25A, PAC1R C219A, PAC1R C25A/C219A, VPAC1R C37A and VPAC1R C208A. For all PAC1R constructs, we used the PAC1R null (PAC1n) splice variant. A construct containing N-terminal NLuc immediately after the native signal peptide of PAC1R was also generated in pcDNA3.1.
COS-7 cells were used for the chimeric peptide and cysteine mutagenesis pharmacological assays due to their lack of endogenous expression of PAC1R and receptor activity-modifying proteins, reported to potentially heterodimerize with PAC1R and VPAC1R[42]. Cells were cultured in Dulbecco’s Modified Eagle’s Medium (DMEM) (Invitrogen) supplemented with 5% v/v heat-inactivated FBS at 37 °C and […] /5% CO2 in a humidified incubator. COS-7 cells were plated in 10 cm dishes at approximately 1 million cells/dish. Cells were transfected 24 h later, with 5 µg of either WT or mutant PAC1R or VPAC1R receptor DNA. DNA and PEI (in a 1:6 ratio) were each diluted in 150 mM NaCl, and then combined and incubated for 10 min, before the mixture was added to the 10 cm dish. The next day, cells were harvested from the 10 cm dishes using Trypsin-Versene (PBS + 0.5 mM EDTA, pH 7.4), and were seeded at a density of 15,000 cells/well into clear 96-well culture plates and incubated overnight at 37 °C in 5% CO2 for cAMP accumulation assay the next day.
The reaction was terminated after 30 min by aspiration of the buffer and addition of 50 μl of ice-cold ethanol. Upon evaporation of ethanol, 75 μl of lysis buffer (5 mM HEPES, 0.1% (w/v) OVA, 0.3% (w/v) Tween20, pH 7.4) was added to the cells. cAMP detection was performed using a LANCE cAMP Detection Kit (PerkinElmer) for the construct validation and cysteine mutagenesis pharmacological assays and cAMP Gs HiRange kit (Cisbio) for the chimeric peptide pharmacological assays. The plates were read using an EnVision plate reader with excitation at 320 nm and emission at 615 nm[45].
(§2) The pharmacological data in figures and tables are reported as mean + standard error of the mean (SEM) with the number of biological replicates indicated in the figure and table legends where “n” represents the number of biological replicates performed. Concentration-response data were analyzed in GraphPad Prism version 9.4.0 using a three-parameter logistic curve to derive pEC50 values for the cyclic AMP accumulation. Competition binding data were analyzed in GraphPad Prism using the one site—Fit log IC50 model to derive pIC50 values. For the cysteine mutagenesis data, comparisons of multiple different groups were performed using one-way analysis of variance (ANOVA), followed by Dunnett’s post-hoc test with the control group being the WT receptor, with significance accepted at p < 0.05. For the chimeric peptide data, comparisons of multiple different groups were performed using one-way ANOVA, followed by Tukey’s post-hoc test, with significance accepted at p < 0.05.

Nluc-PAC1R = target: T2, Nluc-PAC1R (Homo sapiens, UniProt P41586); experiment: NanoBRET competition binding, AF568-PACAP27 probe (Fig. 5c); settings: COS-7, 30 nM AF568-PACAP27, 4 °C, read-out: pIC50, PAC1R competition binding (converted)
T2 construct: A construct containing N-terminal NLuc immediately after the native signal peptide of PAC1R was also generated in pcDNA3.1; expressed in transfected cells; host or cells: COS-7 (transient, PEI; whole cells at 4 °C)
T2 sequence (P41586 21-468): T1 sequence (P41586 21-468)
Excerpt: as §1
Therefore, the lysine residue at position 21 was replaced with a cysteine residue (^21C) for the facile conjugation of fluorophore via thiol-maleimide click reaction. The resulting target peptide ^21C-PACAP27 (Mutant fragment) with amidated C-terminus was synthesized by standard Fmoc-solid phase peptide synthesis method[43] and purified by Reversed-phase high-performance liquid chromatography (RP-HPLC). […] of Alexa Fluor™ 568F was purchased from ThermoFisher Scientific (Catalog number: A20003). The thiol-maleimide conjugation reaction was carried out by our published protocol. […] The molecular weight of the probe was confirmed by Matrix-Assisted Laser Desorption/Ionization Time-of-Flight Mass Spectrometry (MALDI-TOF MS).
COS-7 cells were plated in 10 cm dishes at approximately 1 million cells/dish. Cells were transfected 24 h later, using 3 μg of Nluc-PAC1R DNA using the method described above and then seeded at a density of 15,000 cells per well in white-bottom 96-well culturplates 24 h prior to assay. On the day of the assay, cell culture media was replaced with BRET buffer (0.1% ovalbumin, 10 mM HEPES, 1x HBSS, pH 7.45) and incubated at 4 °C for two hours. […] After 1.5 h, furimazine (10 μM final concentration) was added to each well and the plate incubated for a further 30 min in the dark at 4 °C before reading. Filtered light emissions were measured at 460±40 nm (donor channel) and at 610-LP nm (long pass) (acceptor channel) using a PHERAstar plate reader (BMG Labtech). The raw NanoBRET ratio was calculated by dividing the luminescence from the acceptor channel by the donor channel. Data were expressed as % AF568-PACAP27 BRET signal in the absence of competing ligand.
as §2

Molecule	EC50 (PAC1R; replicate n=1) [nM]	EC50 (PAC1R; replicate n=2) [nM]	EC50 (PAC1R; replicate n=3) [nM]	EC50 (PAC1R; replicate n=4) [nM]	EC50 (PAC1R; replicate n=5) [nM]	IC50 (Nluc-PAC1R; replicate n=1) [nM]	IC50 (Nluc-PAC1R; replicate n=2) [nM]	IC50 (Nluc-PAC1R; replicate n=3) [nM]	IC50 (Nluc-PAC1R; replicate n=4) [nM]	IC50 (Nluc-PAC1R; replicate n=5) [nM]
CC[C@H](C)[C@H](NC(=O)[C@H](C)NC(=O)[C@H](CC(=O)O)NC(=O)[C@H](CO)NC(=O)[C@@H](N)Cc1cnc[nH]1)C(=O)N[C@@H](Cc1ccccc1)C(=O)N[C@H](C(=O)N[C@@H](CC(=O)O)C(=O)N[C@@H](CO)C(=O)N[C@@H](Cc1ccc(O)cc1)C(=O)N[C@@H](CO)C(=O)N[C@@H](CCCNC(=N)N)C(=O)N[C@@H](Cc1ccc(O)cc1)C(=O)N[C@@H](CCCNC(=N)N)C(=O)N[C@@H](CCCCN)C(=O)N[C@@H](CCC(N)=O)C(=O)N[C@@H](CCSC)C(=O)N[C@@H](C)C(=O)N[C@H](C(=O)N[C@@H](CCCCN)C(=O)N[C@@H](CCCCN)C(=O)N[C@@H](Cc1ccc(O)cc1)C(=O)N[C@@H](CC(C)C)C(=O)N[C@@H](C)C(=O)N[C@@H](C)C(=O)N[C@H](C(=O)N[C@@H](CC(C)C)C(N)=O)C(C)C)C(C)C)[C@@H](C)O [Ala4 PACAP27]	3.48	1.67	2.05	8.65	3.32	695	1970	546	918	2860
HSDGVFTDNYTRLRKQMAVKKYLNSILN-NH2 [Gly4 VIP]	28.7	12	12.6	23.6	7.96	7550	5500	7110	3400	1140

From publication PMC9668914, “Understanding VPAC receptor family peptide binding and selectivity” (Nature Communications, 2022)
